US20100035888A1, “Diaryl Urea for Treating Pulmonary Hypertension” (Bater Healthcare AG, priority 2005, published 2010)

Tested on: monocrotaline-treated rats with pulmonary hypertension
Assay: Pulmonary artery pressure in monocrotaline treated rats (MCT-induced pulmonary arterial hypertension)
Assay type: in vivo, rat
Conditions: 3 mg/kg by gavage once daily from day 14 to day 28 after MCT
Method: The effects of the compounds and drug combinations according to the invention are tested in vitro on isolated rat pulmonary arteries and in vivo in monocrotaline-treated rats with pulmonary hypertension.
Male Sprague Dawley rats (250-300 g) are treated with monocrotaline 60 mg/kg subcutanously (=day 0). On day 14 after monocrotaline injection treatment the compound/combination to be tested is administered. On day 28 hemodynamic parameters, i.e. right ventricular pressure, systemic blood pressure, heart rate, arterial and venous oxygen saturation are measured and compared with untreated control animals.
Monocrotaline (MCT) treated rats are randomized to receive 4{4-[3-(4-chloro-3-trifluoromethylphenyl)-ureido]-3-fluorophenoxy}-pyridine-2-carboxylic acid methylamide 3 mg/kg or vehicle by gavage once daily after the onset of moderate pulmonary arterial hypertension starting 14 days after the injection of MCT until day 28. […]

Q: With `CNC(=O)c1cc(Oc2ccc(NC(=O)Nc3ccc(Cl)c(C(F)(F)F)c3)c(F)c2)ccn1` [BAY73-4506, 4{4-[3-(4-chloro-3-trifluoromethylphenyl)-ureido]-3-fluorophenoxy}-pyridine-2-carboxylic acid methylamide] as the compound, how does the mortality rate (control 0%, placebo 40%) read?
A: 0%

Q: And the “right ventricle/left ventricle+septum ratio (right ventricular hypertrophy)” value (mean±SEM, control 0.25±0.01, placebo 0.62±0.02)?
A: 0.28±0.01
